Measurements as given in patent US7557268B1, “Promoter for expression of a gene and response to infection or wounding” (priority 1999, dated 2009).

Test system: pAG2339 promoter deletion (gus reporter) in PR8-2, PR8-3, PR8-12
Format: cell-based, tobacco

With `O=C(O)c1ccccc1O` [SA, salicylic acid] the “change of reporter gene activity (in words)” value was “no significant change”.
